# Measurements: patent US20220264878A1, “HERBICIDAL COMPOSITION CONTAINING R-TYPE PYRIDYLOXY CARBOXYLIC ACID DERIVATIVE AND USE THEREOF” (Qingdao Kingagroot Chemical Compound Co., Ltd., priority 2019, published 2022)
# Key:
# Assay in all cases: Post-emergence foliage spray, pot culture, fresh weight inhibition (Tables 1-48, 51-98, 101-148; 24 days)
# Type in all cases: in vivo
# [1] = tested on: Solanum nigrum
# Source text: (§1) Table 1-48, 51-98, 101-148: Echinochloa crusgalli var. zelayensis, Eclipta prostrate, Galium aparine L., Alopecurus aequalis, Alopecurus japonicus, Lindernia procumbens, Veronica persica^1, Malachium aquaticum, Beckmannia syzigachne, Stellaria media were collected in Huai'an of Jiangsu Province; Commelina communis, Sonchus arvensis, Setaria glauca, Chloris virgata, Setaria faberi, Sonchus oleraceus L., Echinochloa oryzoides, Cirsium setosum, Xanthium strumarium were collected in Qiqiha'er of Heilongjiang Province; Sinapis arvensis, Veronica persica^2 were collected in Zhumadian of Henan Province; Ludwigia prostrate, Ammannia arenaria were collected in Zhuji of Zhejiang Province; Amaranthus retrojlexus, Descurainia sophia, Digitaria sanguinalis, Setaria viridis, Conyza Canadensis, Capsella bursa-pastoris, Eleusine indica, Ipomoea purpurea, Abutilon theophrasti, Chenopodium album, Acalypha australis, Solanum nigrum were collected in Qingdao of Shandong Province; Echinochloa caudate were collected in Pingluo of Ningxia Province.
# (§2) The above weeds were cultivated by a pot culture method. […] Full and uniform weed seeds were selected, soaked in warm water at 25° C. for 6 hours, and germinated in a 28° C. biochemical incubator (darkness). The weed seeds that had just germinatedwere evenly placed on the surface of the soil and then covered with 0.5-1 cm soil according to the sizes of seeds.
# (§3) The culture was carried out in a controllable sunlight greenhouse at 20 to 30° C., in natural light, and relative humidity of 57% to 72%.
# (§4) The technical materials were all dissolved in acetone, and diluted with an aqueous solution containing 0.1% emulsifier Tween-80. The dilution is performed as required.
# (§5) A ratio of the active ingredient A to the active ingredient B and amounts thereof in each group depends on the characteristics and toxicity of the two agents, as well as the main application purpose of a corresponding formulation. Based on the pre-tests in this study, the dosage of the active ingredient A and B applied alone and in combination were shown in the tables. Water containing the solvent and emulsifier same with the above groups but free of the agents was used as a blank control.
# (§6) Table 1-48, 51-98, 101-148, 151-206: […] per treatment, that is, a total of 60 weeds were treated in one treatment.
# (§7) Table 1-48, 51-98, 101-148: The agents were used for only once in the experiment. In the stage of weeds with 3˜4 leaves, the weeds were thinned out to maintain 15 weeds per pot and 45 weeds for each treatment, then continued to be cultured to 5˜6 leaves stage of grassy weeds, 6˜7 leaves stage of broadleaf weeds, and treated.
# (§8) The well-cultured weeds were evenly placed on a platform with an area of 0.5 m^2, and a solution of agents was sprayed on the stems and leaves thereof by the 3WP-2000-type walking spray tower at a dosage of 450 kg/ha and at a spray pressure of 0.3 MPa. After all the solution was sprayed, the valve was closed. After 30 seconds, the door of the spray tower was opened, and the nutritional bowl was taken out. Then the valve was opened, and the spray tube was cleaned by spraying 50 ml of water.
# (§9) A pot-culture method was employed. For the cultivation of weeds, please refer to the Section 1.1), and “Pesticide guidelines for laboratory bioactivity tests—herbicides”. As to a method for applying agents, please refer to the section 2.3.2), that is, a foliage treatment was employed. After the treatment, the weeds were routinely cultured in a greenhouse.
# (§10) A method for investigating absolute number was employed, wherein whole seedlings of survival weeds were cut off with a blade along the soil surface, and the fresh weight of the weeds was weighed with an analytical balance. For dead weeds, the fresh weight thereof was zero.
# (§11) Table 1-48, 51-98, 101-148, 207-216: The investigation was performed after 24 days of the treatment for only once.
# [2] = tested on: Veronica persica^2 (collected in Zhumadian of Henan Province)
# Source text: as §1, §2, §3, §4, §5, §6, §7, §8, §9, §10, §11
# [3] = tested on: Chloris virgata
# Source text: as §1, §2, §3, §4, §5, §6, §7, §8, §9, §10, §11
# [4] = tested on: Eleusine indica; details: Table 79
# Source text: as §1, §2, §3, §4, §5, §6, §7, §8, §9, §10, §11
smiles,measurement,setting,value
CCOC(=O)C(Cl)Cc1cc(-n2nc(C)n(C(F)F)c2=O)c(F)cc1Cl (stereo not drawn) [carfentrazone-ethyl],Control effect (%) of B applied alone in corresponding dose,[1]; B 1.875 g a.i./ha,6.3%
same,Control effect (%) of B applied alone in corresponding dose,[1]; B 3.75 g a.i./ha,12.1%
same,Control effect (%) of B applied alone in corresponding dose,[1]; B 7.5 g a.i./ha,38.0%
same,Control effect (%) of B applied alone in corresponding dose,[1]; B 15 g a.i./ha,68.7%
same,Control effect (%) of B applied alone in corresponding dose,"[2]; Table 90, 1.875 g a.i./ha",2.6%
same,Control effect (%) of B applied alone in corresponding dose,"[2]; Table 90, 3.75 g a.i./ha",11.6%
same,Control effect (%) of B applied alone in corresponding dose,"[2]; Table 90, 7.5 g a.i./ha",36.2%
same,Control effect (%) of B applied alone in corresponding dose,"[2]; Table 90, 15 g a.i./ha",68.2%
O=C(Nc1ccc(F)cc1F)c1cccnc1Oc1cccc(C(F)(F)F)c1 [diflufenican],Control effect (%) of B applied alone in corresponding dose,[1]; B 15 g a.i./ha,6.0%
same,Control effect (%) of B applied alone in corresponding dose,[1]; B 30 g a.i./ha,15.0%
same,Control effect (%) of B applied alone in corresponding dose,[1]; B 60 g a.i./ha,41.7%
same,Control effect (%) of B applied alone in corresponding dose,[1]; B 120 g a.i./ha,76.5%
same,Control effect (%) of B applied alone in corresponding dose,"[2]; Table 87, 15 g a.i./ha",2.3%
same,Control effect (%) of B applied alone in corresponding dose,"[2]; Table 87, 30 g a.i./ha",10.2%
same,Control effect (%) of B applied alone in corresponding dose,"[2]; Table 87, 60 g a.i./ha",40.3%
same,Control effect (%) of B applied alone in corresponding dose,"[2]; Table 87, 120 g a.i./ha",76.2%
CCn1ncc(C(=O)c2ccc(S(C)(=O)=O)c(COCC(F)(F)F)c2Cl)c1OC(=O)c1cn(C)nc1C [fenpyrazone],Control effect (%) of B applied alone in corresponding dose,[3]; B 7.5 g a.i./ha,5.5%
same,Control effect (%) of B applied alone in corresponding dose,[3]; B 15 g a.i./ha,14.8%
same,Control effect (%) of B applied alone in corresponding dose,[3]; B 30 g a.i./ha,39.9%
same,Control effect (%) of B applied alone in corresponding dose,[3]; B 60 g a.i./ha,79.2%
same,Control effect (%) of B applied alone in corresponding dose,[4]; 7.5 g a.i./ha,2.9%
same,Control effect (%) of B applied alone in corresponding dose,[4]; 15 g a.i./ha,10.9%
same,Control effect (%) of B applied alone in corresponding dose,[4]; 30 g a.i./ha,38.6%
same,Control effect (%) of B applied alone in corresponding dose,[4]; 60 g a.i./ha,79.1%
